Experimental data as given in US10919885B2, “Compounds and uses thereof” (Yumanity Therapeutics, Inc., priority 2018, dated 2021).

Each compound was assayed against human SCD1 (Homo sapiens (Human), UniProt O00767) (assay: Yeast growth assay, strain expressing human SCD1 as the sole desaturase (reduced growth as surrogate for SCD inhibition)). Conditions: yeast with OLE1 deleted expressing human SCD1 from a plasmid; growth read as OD600 after 40 h at 30° C.; top drug concentration 33.3 μM.
Format: cell-based
Description: Strains expressing SCD1 or SCD5 as the sole desaturase, the human SCD1 and SCD5 genes were used to evaluate inhibition of SCD1/SCD5 using reduced growth as a surrogate for SCD inhibition. These yeast strains express human SCD1 or SCD5 from a plasmid harbored in a strain in which the yeast OLE1 gene is deleted.
All compound profiling experiments were performed using the same basic protocol. Yeast were cultured using standard techniques in complete synthetic media lacking uracil and containing yeast nitrogen base supplemented with 2% (w/v) glucose (SD-Ura) Starter cultures were inoculated in 3 mL SD-Ura media containing 0.01% tween and 0.2 mM palmitoleic and oleic acid. Cultures were incubated overnight in a 30° C. shaker incubator (225 rpm). Saturated morning cultures were centrifuged, washed in SD-Ura media lacking TWEEN-20 and fatty acids, and then diluted 1:20 in fresh SD-Ura media also lacking TWEEN-20 and fatty acids.
Compound administration was performed in two separate steps. First, 15 μL of SD-Ura was dispensed into clear 384-well assay plates using a MULTIDROP™ Combi reagent dispenser. […] The cultures described above were centrifuged and washed with media lacking TWEEN-20 or oleic and palmitoleic acids.
After yeast delivery, assay plates were incubated under humidified conditions at 30° C. for 40 h. Yeast growth was monitored by reading the OD600 of each well using a microplate reader (Perkin Elmer EnVision™).

Chain of human SCD1 (O00767 whole entry): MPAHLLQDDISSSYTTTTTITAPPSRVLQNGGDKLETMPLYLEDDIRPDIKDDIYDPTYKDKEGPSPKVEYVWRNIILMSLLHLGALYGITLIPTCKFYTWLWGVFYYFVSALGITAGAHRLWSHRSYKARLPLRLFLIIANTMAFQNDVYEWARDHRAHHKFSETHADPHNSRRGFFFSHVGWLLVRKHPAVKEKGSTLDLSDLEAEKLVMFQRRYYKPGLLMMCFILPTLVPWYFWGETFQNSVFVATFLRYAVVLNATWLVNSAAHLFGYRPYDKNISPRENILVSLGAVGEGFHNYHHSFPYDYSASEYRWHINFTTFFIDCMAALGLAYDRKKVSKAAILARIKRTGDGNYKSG

Row | Structure (SMILES) | IC50 [µM]
1 | O=C(Nc1cnn(Cc2cccc(F)c2)c1)c1cc(C2CCCCC2)on1 [Compound 83, 5-cyclohexyl-N-(1-(3-fluorobenzyl)-1H-pyrazol-4-yl)isoxazole-3-carboxamide] | 0.066
2 | O=C(Nc1cnn(Cc2cccc(Cl)c2)c1)c1cc(-c2ccco2)on1 [Compound 22, N-[1-[(3-chlorophenyl)methyl]pyrazol-4-yl]-5-(2-furyl)isoxazole-3-carboxamide] | > 45
3 | O=C(Nc1cnn(Cc2ccccc2)c1)c1cc(Cl)on1 [Compound 180] | > 45
4 | O=C(Nc1cnn(Cc2cccc(F)c2)c1)c1cc(-c2ccco2)on1 [Compound 30, N-[1-[(3-fluorophenyl)methyl]pyrazol-4-yl]-5-(2-furyl)isoxazole-3-carboxamide] | 0.01
5 | O=C(Nc1cnn(Cc2cccc(F)c2)c1)c1cc(N2CCCCC2)on1 [Compound 102, N-(1-(3-fluorobenzyl)-1H-pyrazol-4-yl)-5-(piperidin-1-yl)isoxazole-3-carboxamide] | 0.036
6 | CC(C)(C)OC(=O)N1CCN(c2cc(C(=O)Nc3cnn(Cc4ccccc4)c3)no2)CC1 [Compound 185, tert-butyl 4-(3-(1-benzyl-1H-pyrazol-4-ylcarbamoyl)isoxazol-5-yl)piperazine-1-carboxylate] | 0.012
7 | O=C(Nc1cnn(Cc2ccccc2)c1)c1cc(-c2cncs2)on1 [Compound 37, N-(1-benzylpyrazol-4-yl)-5-thiazol-5-yl-isoxazole-3-carboxamide] | 0.26
8 | O=C(Nc1cnn(Cc2ccccc2)c1)c1cc(N2CCNCC2)on1 [Compound 190] | > 45
9 | O=C(Nc1cnn(Cc2ccccc2)c1)c1cc(-c2ccco2)no1 [Compound 11, N-(1-benzylpyrazol-4-yl)-3-(2-furyl)isoxazole-5-carboxamide] | 0.05
10 | O=C(Nc1cnn(Cc2ccccc2)c1)c1cc(-c2ccco2)on1 [Compound 4, N-(1-benzyl-1H-pyrazol-4-yl)-5-(furan-2-yl)isoxazole-3-carboxamide] | 0.09
11 | CO[C@@H]1CCN(c2cc(C(=O)Nc3cnn(Cc4ccccc4)c3)no2)C1 [Compound 188, (R)—N-(1-benzyl-1H-pyrazol-4-yl)-5-(3-methoxypyrrolidin-1-yl)isoxazole-3-carboxamide] | 0.074
12 | C=C(C)c1cc(C(=O)Nc2cnn(Cc3cccc(F)c3)c2)no1 [Compound 58, N-(1-(3-fluorobenzyl)-1H-pyrazol-4-yl)-5-(prop-1-en-2-yl)isoxazole-3-carboxamide] | 0.02
13 | O=C(Nc1cnn(Cc2ccccc2)c1)c1cc(-c2ccccc2F)on1 [Compound 38, N-(1-benzylpyrazol-4-yl)-5-(2-fluorophenyl)isoxazole-3-carboxamide] | > 45
14 | N#Cc1ccc(-c2cc(C(=O)N3CCC(c4ccccc4)CC3)no2)c(F)c1 [Compound 325, 3-fluoro-4-(3-(4-phenylpiperidine-1-carbonyl)isoxazol-5-yl)benzonitrile] | 0.16
15 | O=C(Nc1cnn(Cc2cc(F)ccc2Cl)c1)c1cc(-c2ccco2)on1 [Compound 28, N-(1-(2-chloro-5-fluorobenzyl)-1H-pyrazol-4-yl)-5-(furan-2-yl)isoxazole-3-carboxamide] | > 45
16 | O=C(Nc1cnn(Cc2ccccc2F)c1)c1cc(-c2ccco2)on1 [Compound 19, N-[1-[(2-fluorophenyl)methyl]pyrazol-4-yl]-5-(2-furyl)isoxazole-3-carboxamide] | 0.36
17 | O=C(Nc1cnn(Cc2cnccc2C(F)(F)F)c1)c1cc(-c2ccccc2)on1 [Compound 160, 5-phenyl-N-(1-((4-(trifluoromethyl)pyridin-3-yl)methyl)-1H-pyrazol-4-yl)isoxazole-3-carboxamide] | > 45
18 | COC1(c2cc(C(=O)Nc3cnn(Cc4ccccc4)c3)no2)CCC1 [Compound 120] | 0.94
19 | CNC(=O)c1ccc(-c2cc(C(=O)N3CCC(c4ccccc4)CC3)no2)cc1 [Compound 304, N-methyl-4-[3-(4-phenylpiperidine-1-carbonyl)isoxazol-5-yl]benzamide] | 0.38
20 | O=C(Nc1cnn(Cc2cnccc2C(F)(F)F)c1)c1cc(N2CCCCC2)on1 [Compound 182, 5-(piperidin-1-yl)-N-(1-((4-(trifluoromethyl)pyridin-3-yl)methyl)-1H-pyrazol-4-yl)isoxazole-3-carboxamide] | > 45
21 | O=C(Nc1cnn(Cc2cccc(F)c2)c1)c1cc(-c2cncs2)on1 [Compound 69, N-(1-(3-fluorobenzyl)-1H-pyrazol-4-yl)-5-(thiazol-5-yl)isoxazole-3-carboxamide] | 0.19
22 | O=C(Nc1cnn(Cc2ccccc2)c1)c1cc(N2CCCCC2)on1 [Compound 159, N-(1-benzyl-1H-pyrazol-4-yl)-5-(piperidin-1-yl)isoxazole-3-carboxamide] | 0.058
23 | O=C(Nc1cnn(Cc2cnccc2C(F)(F)F)c1)c1cc(-c2cnco2)on1 [Compound 171, 5-(oxazol-5-yl)-N-(1-((4-(trifluoromethyl)pyridin-3-yl)methyl)-1H-pyrazol-4-yl)isoxazole-3-carboxamide] | 19
24 | Cc1cnccc1-c1cc(C(=O)Nc2cnn(Cc3ccccc3)c2)no1 [Compound 201, N-(1-benzyl-1H-pyrazol-4-yl)-5-(3-methylpyridin-4-yl)isoxazole-3-carboxamide] | > 45
25 | O=C(Nc1cnn(Cc2ccccc2)c1)c1cc(-c2nccs2)on1 [Compound 110, N-(1-benzyl-1H-pyrazol-4-yl)-5-(thiazol-2-yl)isoxazole-3-carboxamide] | 8.9
26 | O=C(Nc1cnn(Cc2cc(F)ccc2C(F)(F)F)c1)c1cc(-c2ccco2)on1 [Compound 36, N-[1-[[5-fluoro-2-(trifluoromethyl)phenyl]methyl]pyrazol-4-yl]-5-(2-furyl)isoxazole-3-carboxamide] | > 45
27 | O=C(Nc1cnn(Cc2ccccc2)c1)c1cc(N2CCCC2)on1 [Compound 178, N-(1-benzyl-1H-pyrazol-4-yl)-5-(pyrrolidin-1-yl)isoxazole-3-carboxamide] | 0.01

The remaining lines, values ahead:

Row | IC50 [µM] | Structure (SMILES)
28 | > 45 | O=C(c1cc(-c2ccccc2)on1)N1CCC2(CCN(c3ccccc3)C2)C1 (centres unmarked) [Compound 341]
29 | > 45 | COc1ccccc1C1CCCN1C(=O)c1cc(-c2ccc3c(c2)OCO3)on1 (centres unmarked) [Compound 364]
30 | > 45 | CNC(=O)c1ccc(-c2cc(C(=O)N3CC(c4ccccc4)C3)no2)cc1 [Compound 231, N-methyl-4-(3-(3-phenylazetidine-1-carbonyl)isoxazol-5-yl)benzamide]
31 | 36.6 | COc1ccc(C2CCCN2C(=O)c2cc(-c3ccc(F)c(OC)c3)on2)cc1 (centres unmarked) [Compound 383]
32 | > 45 | O=C(c1cc(-c2ccc3c(c2)OCO3)on1)N1CCCC1c1cccc(Br)c1 (centres unmarked) [Compound 388]
33 | > 45 | O=C(c1cc(-c2ccc3c(c2)OCO3)on1)N1CCN(c2ccccc2F)CC1 [Compound 277]
34 | > 45 | O=C(c1cc(-c2ccccc2)on1)N1CCC(c2cccc(F)c2)C1 (centres unmarked) [Compound 339]
35 | 36 | O=C(c1cc(-c2ccccc2)on1)N1CCn2ccnc2C1 [Compound 268]
36 | > 45 | Cc1nn(C)c2cc(-c3cc(C(=O)N4COCC4c4ccccc4)no3)ccc12 (centres unmarked) [Compound 419]
37 | 23.1 | COc1ccc(-c2cc(C(=O)N3CCC[C@H]3c3ccccc3)no2)nc1 [Compound 416]
38 | > 45 | COc1ccc(-c2cc(C(=O)N3CC(Cc4ccccc4)C3)no2)nn1 [Compound 256]
39 | > 45 | Cn1c(=O)oc2ccc(-c3cc(C(=O)N4CCC[C@H]4c4ccccc4)no3)cc21 [Compound 444]
40 | > 45 | O=C(c1cc(-c2ccccn2)on1)N1CCC(c2ccccc2)C1 (centres unmarked) [Compound 351]
41 | 38.9 | N#Cc1cccc(C2CCCN2C(=O)c2cc(-c3ccc4c(c3)OCO4)on2)c1 (centres unmarked) [Compound 396]
42 | > 45 | O=C(c1cc(-c2ccc3c(c2)OCO3)on1)N1CCC(O)(c2ccccc2)CC1 [Compound 300]
43 | > 45 | O=C(c1cc(-c2ccc3c(c2)OCO3)on1)N1CCC(c2ccccc2C(F)(F)F)CC1 [Compound 302, [5-(1,3-benzodioxol-5-yl)isoxazol-3-yl]-[4-[2-(trifluoromethyl)phenyl]-1-piperidyl]methanone]
44 | > 45 | O=C(c1cc(-c2ccc3c(c2)OCO3)on1)N1CCOCC1c1ccccc1 (centres unmarked) [Compound 397]
45 | > 45 | O=C(c1cc(-c2ccco2)on1)N1CC2(CCC2)C1 [Compound 246]
46 | > 45 | COC1(c2ccccc2)CCN(C(=O)c2cc(-c3ccccc3)on2)CC1 [Compound 323]
47 | > 45 | O=C(c1cc(-c2ccc3c(c2)OCO3)on1)N1CCCC1c1ccc(F)cc1 (centres unmarked) [Compound 368]
48 | > 45 | COc1cccc(C2CCCN2C(=O)c2cc(-c3ccc4c(c3)OCO4)on2)c1 (centres unmarked) [Compound 365]
49 | 36.3 | Cn1cc(-c2cc(C(=O)N3CCC[C@H]3c3ccccc3)no2)ccc1=O [Compound 429]
50 | 30 | O=C(c1cc(-c2ccc3c(c2)OCO3)on1)N1C[C@@H](F)C[C@H]1c1ccccc1 [Compound 427]
51 | > 45 | O=C(c1cc(-c2ccccc2)on1)N1CCCC1c1ccccc1 (centres unmarked) [Compound 387]
52 | > 45 | COc1ccc(-c2cc(C(=O)N3CCN(c4ccccc4)CC3)no2)cc1OC [Compound 274]
53 | > 45 | N#Cc1ccc(-c2cc(C(=O)N3CCC[C@H]3c3ccccc3)no2)nc1 [Compound 435]
